Experimental data reported in PMC9246773, “Assessing the Activity of Antimicrobial Peptides Against Common Marine Bacteria Located in Rotifer (Brachionus plicatilis) Cultures” (Probiotics and Antimicrobial Proteins, 2022).
No end group written: not given here.

Key:
Type in all cases: cell-based
[1] = test system: Vibrio harveyi (ATCC 35084); conditions: MHB 0‰, 25 °C, MIC after 48 h, ca. 5 × 10^5 CFU mL^-1, duplicate
Procedure: (§1) A range of bacterial species with the potential to be transferred to developing fish larvae as pathogens or probiotics were selected for use in the study (Table 2). Bacterial isolates were stored at −80 °C and thawed, and 25 µL of the isolates was spread onto marine salt agar (MSA) media. All isolates were incubated at 25 °C for 18 h to reach mid-log growth phase. All isolates were sub-cultured and identified using mass spectrometry (MALDI-TOF) using the BioTyper and MBT 8468 library (Bruker Pty Ltd). The isolate Tenacibaculum discolor was plated on Anacker and Oradal’s marine (AOM) media, incubated for 48 h and identified using the aforementioned method. Bacterial isolates were suspended in sterile saline (0.75% NaCl w/v) to 0.5 McFarland standard. […] The bacterial isolates T. discolor and Pseudoalteromonas sp. require marine salts to grow and were not added to MHB (0‰). The isolate T. discolor requires low nutrients to grow, therefore, a separate MHB (25‰) was prepared at a diluted ratio of 1 part MHB and 7 parts artificial seawater (25‰).
(§2) The protocol was followed to determine the minimum inhibitory concentration (MIC) of the selected peptides. Two MIC assays were performed, firstly to determine whether each peptide precipitated in MHB and thereby required acetic acid adjustments (supplementary materials) and secondly, to determine the antimicrobial activity of each peptide in artificial seawater (25‰). Peptide stock solutions (1.3 mg mL^−1) were made by diluting the peptides in sterile deionised water. MHB was made with deionised water to reach a concentration of approaching 0‰ and artificial sea salts (Sigma-Aldrich® S9883) to reach a salinity of 25‰.
(§3) A broth microdilution protocol was followed to test whether the AMPs precipitated in MHB. The isolates T. discolor and Pseudoalteromonas were excluded from this assay because they required marine salts for growth. The peptides HHC10 and HHC36 previously required acetic acid adjustments according to [63] and were not trialled in this assay. To test if peptides required acetic acid, each peptide was diluted 1:2 in acetic acid (0.02% acetic acid w/v, containing 0.4% BSA) solution. In a 96-well polypropylene microtitre plates (Costar® 3879), 100 µL of this peptide stock was added to the first well for each bacterial isolate tested and serially diluted 2-fold with acetic acid (0.01% acetic acid w/v, containing 0.2% BSA). From each well, 10 µL of each peptide concentration was added to the corresponding wells of a new 96-well microtitre plate. From each of the bacterial suspensions in MHB (0‰), 90 µL was added to each well. […] From each of the bacterial suspensions in MHB (0‰), 50 µL was added to each well. All peptide concentrations ranged from 0.125 - 65µg mL^-1 and the bacterial suspension in each well was approximately 5 × 10^5 CFU mL^-1. Antimicrobial peptides that have an MIC value two or more dilutions higher in the assay with no acetic acid, compared to the assay with acetic acid, require acetic acid adjustments. The 96-well plates were incubated at 25 °C and read at 24 and 48 hours. The MIC was visually determined using a Sensititre™ Vizion™ Digital MIC Viewing System (Thermo Scientific™), and the lowest AMP concentration that had no bacterial growth was recorded as the MIC after 48 hours. Each bacterium was trialled in duplicate.

Vibrio rotiferianus [2] = conditions: MHB 0‰, 25 °C, MIC after 48 h, ca. 5 × 10^5 CFU mL^-1, duplicate
Procedure: as §1, §2, §3

Vibrio alginolyticus [3] = conditions: MHB 0‰, 25 °C, MIC after 48 h, ca. 5 × 10^5 CFU mL^-1, duplicate
Procedure: as §1, §2, §3

Vibrio scophthalmi [4] = conditions: MHB 0‰, 25 °C, MIC after 48 h, ca. 5 × 10^5 CFU mL^-1, duplicate
Procedure: as §1, §2, §3

Shewanella sp. [5] = conditions: MHB 0‰, 25 °C, MIC after 48 h, ca. 5 × 10^5 CFU mL^-1, duplicate
Procedure: as §1, §2, §3

[6] = test system: Escherichia coli (ATCC 25922); conditions: MHB 0‰, 25 °C, MIC after 48 h, ca. 5 × 10^5 CFU mL^-1, duplicate
Procedure: as §1, §2, §3

Vibrio harveyi [7] = conditions: MHB 0‰, 25 °C, MIC after 48 h, ca. 5 × 10^5 CFU mL^-1, duplicate
Procedure: as §1, §2, §3

[8] = test system: Vibrio harveyi (ATCC 35084); conditions: acetic acid only for peptides requiring it, 25 °C, MIC after 48 h, ca. 5 × 10^5 CFU mL^-1, duplicate
Procedure: as §1, §2
(§4) Once the acetic acid requirement for each peptide was determined (Table 3), the antimicrobial activity of each peptide was tested at a salinity of 0‰ and 25‰ for all bacterial isolates. A stock solution for peptides that required acetic acid was prepared by a 1:2 dilution in acetic acid (0.02% acetic acid w/v, containing 0.4% BSA) solution. In a 96-well polypropylene microtitre plates (Costar® 3879), 100 µL of this peptide stock was added to the first well for each bacterial isolate tested and serially diluted twofold with acetic acid (0.01% acetic acid w/v, containing 0.2% BSA). From each well, 10 µL of each peptide concentration was added to the corresponding wells of a new 96-well microtitre plate. From each of the bacterial suspensions (0‰), 90 µL was added to each well. […] Twofold serial dilutions were made with MHB (0‰). From each of the bacterial suspensions (0‰), 50 µL was added to each well. The same method was followed for testing peptides in MHB at 25‰. All peptide concentrations ranged from 0.125 to 65 µg mL^−1, and the bacterial suspension in each well was approximately 5 × 10^5 CFU mL^−1. The different salinities were used to compare any differences in antimicrobial activity in 0‰ and 25‰ water. […] Each bacterium was trialled in duplicate.

Vibrio rotiferianus [9] = conditions: acetic acid only for peptides requiring it, 25 °C, MIC after 48 h, ca. 5 × 10^5 CFU mL^-1, duplicate
Procedure: as §1, §2, §4

Vibrio alginolyticus [10] = conditions: acetic acid only for peptides requiring it, 25 °C, MIC after 48 h, ca. 5 × 10^5 CFU mL^-1, duplicate
Procedure: as §1, §2, §4

Pseudoalteromonas sp. = conditions: MHB with artificial sea salts 25‰; 25 °C; MIC after 48 h; ca. 5 × 10^5 CFU mL^-1; duplicate
Procedure: as §1, §2, §4

Vibrio scophthalmi [11] = conditions: acetic acid only for peptides requiring it, 25 °C, MIC after 48 h, ca. 5 × 10^5 CFU mL^-1, duplicate
Procedure: as §1, §2, §4

Shewanella sp. [12] = conditions: acetic acid only for peptides requiring it, 25 °C, MIC after 48 h, ca. 5 × 10^5 CFU mL^-1, duplicate
Procedure: as §1, §2, §4

[13] = test system: Escherichia coli (ATCC 25922); conditions: acetic acid only for peptides requiring it, 25 °C, MIC after 48 h, ca. 5 × 10^5 CFU mL^-1, duplicate
Procedure: as §1, §2, §4

Tenacibaculum discolor = conditions: MHB (25‰) diluted 1 part MHB and 7 parts artificial seawater (25‰); 25 °C; MIC after 48 h; ca. 5 × 10^5 CFU mL^-1; duplicate
Procedure: as §1, §2, §4

Vibrio harveyi [14] = conditions: acetic acid only for peptides requiring it, 25 °C, MIC after 48 h, ca. 5 × 10^5 CFU mL^-1, duplicate
Procedure: as §1, §2, §4

[15] = no acetic acid (peptide diluted 1:10 in MHB)
[16] = with acetic acid (0.01% acetic acid w/v, 0.2% BSA diluent)
[17] = MHB with artificial sea salts 25‰

VLQIKKVLRLLL-NH2 [Peptide 3011]
MIC V. harveyi ATCC 35084, No acetic [1, 15]: 8.13 µg/mL | MIC V. harveyi ATCC 35084, Acetic [1, 16]: 16.25 µg/mL | MIC V. rotiferianus, No acetic (Vibrio rotiferianus [2]; [15]): 4.06 µg/mL | MIC V. rotiferianus, Acetic (Vibrio rotiferianus [2]; [16]): 4.06 µg/mL | MIC V. alginolyticus, No acetic (Vibrio alginolyticus [3]; [15]): 4.06 µg/mL | MIC V. alginolyticus, Acetic (Vibrio alginolyticus [3]; [16]): 4.06 µg/mL | MIC V. scophthalmi, No acetic (Vibrio scophthalmi [4]; [15]): 2.03 µg/mL | MIC V. scophthalmi, Acetic (Vibrio scophthalmi [4]; [16]): 4.06 µg/mL | MIC Shewanella sp., No acetic (Shewanella sp. [5]; [15]): 16.25 µg/mL | MIC Shewanella sp., Acetic (Shewanella sp. [5]; [16]): 16.25 µg/mL | MIC E. coli ATCC 25922, No acetic [6, 15]: 8.13 µg/mL | MIC E. coli ATCC 25922, Acetic [6, 16]: 16.25 µg/mL | MIC V. harveyi, No acetic (Vibrio harveyi [7]; [15]): 32.5 µg/mL | MIC V. harveyi, Acetic (Vibrio harveyi [7]; [16]): 16.25 µg/mL | MIC V. harveyi ATCC 35084, salinity 0‰ ([8]; MHB 0‰): 8.13 µg/mL | MIC V. harveyi ATCC 35084, salinity 25‰ [8, 17]: > 65 µg/mL | MIC V. rotiferianus, salinity 0‰ (Vibrio rotiferianus [9]; MHB 0‰): 4.06 µg/mL | MIC V. rotiferianus, salinity 25‰ (Vibrio rotiferianus [9]; [17]): > 65 µg/mL | MIC V. alginolyticus, salinity 0‰ (Vibrio alginolyticus [10]; MHB 0‰): 4.06 µg/mL | MIC V. alginolyticus, salinity 25‰ (Vibrio alginolyticus [10]; [17]): > 65 µg/mL | MIC Pseudoalteromonas sp., salinity 25‰ (Pseudoalteromonas sp.): > 65 µg/mL | MIC V. scophthalmi, salinity 0‰ (Vibrio scophthalmi [11]; MHB 0‰): 1.02 µg/mL | MIC V. scophthalmi, salinity 25‰ (Vibrio scophthalmi [11]; [17]): > 65 µg/mL | MIC Shewanella sp., salinity 0‰ (Shewanella sp. [12]; MHB 0‰): 8.13 µg/mL | MIC Shewanella sp., salinity 25‰ (Shewanella sp. [12]; [17]): > 65 µg/mL | MIC E. coli ATCC 25922, salinity 0‰ ([13]; MHB 0‰): 16.25 µg/mL | MIC E. coli ATCC 25922, salinity 25‰ [13, 17]: > 65 µg/mL | MIC T. discolor, salinity 25‰ (Tenacibaculum discolor): > 65 µg/mL | MIC V. harveyi, salinity 0‰ (Vibrio harveyi [14]; MHB 0‰): 8.13 µg/mL | MIC V. harveyi, salinity 25‰ (Vibrio harveyi [14]; [17]): > 65 µg/mL
